Data from PubChem BioAssay (NCI).
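Protocol summary: plate cells (96-well), add compound at 5 concentrations, incubate 48 h, interpolate endpoints linearly. GI50 is the concentration that inhibits growth by half. TGI is the concentration that stops growth completely.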

Key:
Assay in all cases: NCI anticancer screen, dose series, 48 h
786-0 renal = tested on: 786-0 renal
A498 renal = tested on: A498 renal
A549 NSCLC = tested on: A549 NSCLC
ACHN renal = tested on: ACHN renal
BT-549 breast = tested on: BT-549 breast
CAKI-1 renal = tested on: CAKI-1 renal
CCRF-CEM leukemia = tested on: CCRF-CEM leukemia
COLO 205 colon = tested on: COLO 205 colon
DU-145 prostate = tested on: DU-145 prostate
HCC-2998 colon = tested on: HCC-2998 colon
HCT-116 colon = tested on: HCT-116 colon
HCT-15 colon = tested on: HCT-15 colon
HL-60(TB) leukemia = tested on: HL-60(TB) leukemia
HOP-62 NSCLC = tested on: HOP-62 NSCLC
HOP-92 NSCLC = tested on: HOP-92 NSCLC
HS 578T breast = tested on: HS 578T breast
HT29 colon = tested on: HT29 colon
IGROV1 ovarian = tested on: IGROV1 ovarian
K-562 leukemia = tested on: K-562 leukemia
KM12 colon = tested on: KM12 colon
LOX IMVI melanoma = tested on: LOX IMVI melanoma
M14 melanoma = tested on: M14 melanoma
MALME-3M melanoma = tested on: MALME-3M melanoma
MCF7 breast = tested on: MCF7 breast
MDA-MB-231 breast = tested on: MDA-MB-231 breast
MDA-MB-435 = tested on: MDA-MB-435
MOLT-4 leukemia = tested on: MOLT-4 leukemia
NCI-H226 lung = tested on: NCI-H226 lung
NCI-H23 lung = tested on: NCI-H23 lung

## COc1cccc(C(=O)c2sc(Nc3ccc(N4CCN(C(C)C)CC4)cc3)nc2N)c1
786-0 renal
  GI50: 1.61 µM
  TGI: 5.76 µM
A498 renal
  GI50: 2.33 µM
  TGI: 8.24 µM
A549 NSCLC
  GI50: 1.22 µM
  TGI: 12.5 µM
ACHN renal
  GI50: 0.596 µM
  TGI: > 25 µM
BT-549 breast
  GI50: 3.62 µM
  TGI: 7.55 µM
CAKI-1 renal
  GI50: 1.01 µM
  TGI: > 8.2 µM
CCRF-CEM leukemia
  GI50: 0.788 µM
  TGI: 4.41 µM
COLO 205 colon
  GI50: 0.694 µM
  TGI: 3.53 µM
DU-145 prostate
  GI50: 1.14 µM
  TGI: > 25 µM
HCC-2998 colon
  GI50: 3.39 µM
  TGI: 10.7 µM
HCT-116 colon
  GI50: 0.845 µM
  TGI: > 25 µM
HCT-15 colon
  GI50: 0.962 µM
  TGI: > 25 µM
HL-60(TB) leukemia
  GI50: 0.661 µM
  TGI: 2.73 µM
HOP-62 NSCLC
  GI50: 1.57 µM
  TGI: 11.9 µM
HOP-92 NSCLC
  GI50: 0.545 µM
  TGI: 4.38 µM
HS 578T breast
  GI50: 2.42 µM
  TGI: 11.4 µM
HT29 colon
  GI50: 0.997 µM
  TGI: 12.8 µM
IGROV1 ovarian
  GI50: 2.14 µM
  TGI: > 18.6 µM
K-562 leukemia
  GI50: 3.22 µM
  TGI: > 22.1 µM
KM12 colon
  GI50: 0.889 µM
  TGI: 7.13 µM
LOX IMVI melanoma
  GI50: 1.22 µM
  TGI: 4.88 µM
M14 melanoma
  GI50: 2.96 µM
  TGI: 7.12 µM
MALME-3M melanoma
  GI50: 3.02 µM
  TGI: 7.13 µM
MCF7 breast
  GI50: 0.473 µM
  TGI: 3.38 µM
MDA-MB-231 breast
  GI50: 1.84 µM
  TGI: > 19.8 µM
MDA-MB-435
  GI50: 1.63 µM
  TGI: 5.68 µM
MOLT-4 leukemia
  GI50: 0.966 µM
  TGI: 13.1 µM
NCI-H226 lung
  GI50: 1.38 µM
  TGI: > 22.8 µM
NCI-H23 lung
  GI50: 1.42 µM
